Experimental data taken from patent US20120122860A1, “SOLID FORMS OF SULFONAMIDES AND AMINO ACIDS” (Plexxikon, Inc., priority 2009, published 2012).

Legend:
[1] = molecular target: Kit (Homo sapiens, UniProt P10721); experiment: Kinase activity assay, Kit
[2] = molecular target: Src (Homo sapiens, UniProt P12931); experiment: Kinase activity assay, Src
[3] = molecular target: T1, TEC (Homo sapiens, UniProt P42680); experiment: Kinase activity assay, TEC
T1 sequence (P42680 1-631): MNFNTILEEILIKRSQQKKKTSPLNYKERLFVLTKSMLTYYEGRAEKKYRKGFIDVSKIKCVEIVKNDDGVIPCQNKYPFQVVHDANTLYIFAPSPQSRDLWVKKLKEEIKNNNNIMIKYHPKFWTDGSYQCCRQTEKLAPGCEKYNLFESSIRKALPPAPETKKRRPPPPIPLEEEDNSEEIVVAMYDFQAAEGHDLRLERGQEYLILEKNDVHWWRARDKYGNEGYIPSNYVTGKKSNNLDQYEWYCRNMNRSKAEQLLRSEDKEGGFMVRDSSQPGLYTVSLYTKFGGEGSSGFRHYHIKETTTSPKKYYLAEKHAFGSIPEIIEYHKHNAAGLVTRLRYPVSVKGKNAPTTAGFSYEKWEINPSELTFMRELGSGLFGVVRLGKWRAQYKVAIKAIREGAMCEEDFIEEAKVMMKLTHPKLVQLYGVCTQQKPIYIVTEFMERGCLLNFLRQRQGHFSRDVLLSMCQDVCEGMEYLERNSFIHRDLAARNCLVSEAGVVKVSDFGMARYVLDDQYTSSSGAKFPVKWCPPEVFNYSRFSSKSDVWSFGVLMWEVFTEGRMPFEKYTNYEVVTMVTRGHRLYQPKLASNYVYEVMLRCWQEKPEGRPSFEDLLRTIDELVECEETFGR

[4] = molecular target: MAP4K4 (Homo sapiens, UniProt O95819); experiment: Kinase activity assay, MAP4K4
[5] = molecular target: B-Raf (Homo sapiens, UniProt P15056); experiment: Kinase activity assay, B-Raf; type: biochemical; settings: read-out: activity toward kinase B-Raf, IC50
B-Raf, sequence (P15056 whole entry): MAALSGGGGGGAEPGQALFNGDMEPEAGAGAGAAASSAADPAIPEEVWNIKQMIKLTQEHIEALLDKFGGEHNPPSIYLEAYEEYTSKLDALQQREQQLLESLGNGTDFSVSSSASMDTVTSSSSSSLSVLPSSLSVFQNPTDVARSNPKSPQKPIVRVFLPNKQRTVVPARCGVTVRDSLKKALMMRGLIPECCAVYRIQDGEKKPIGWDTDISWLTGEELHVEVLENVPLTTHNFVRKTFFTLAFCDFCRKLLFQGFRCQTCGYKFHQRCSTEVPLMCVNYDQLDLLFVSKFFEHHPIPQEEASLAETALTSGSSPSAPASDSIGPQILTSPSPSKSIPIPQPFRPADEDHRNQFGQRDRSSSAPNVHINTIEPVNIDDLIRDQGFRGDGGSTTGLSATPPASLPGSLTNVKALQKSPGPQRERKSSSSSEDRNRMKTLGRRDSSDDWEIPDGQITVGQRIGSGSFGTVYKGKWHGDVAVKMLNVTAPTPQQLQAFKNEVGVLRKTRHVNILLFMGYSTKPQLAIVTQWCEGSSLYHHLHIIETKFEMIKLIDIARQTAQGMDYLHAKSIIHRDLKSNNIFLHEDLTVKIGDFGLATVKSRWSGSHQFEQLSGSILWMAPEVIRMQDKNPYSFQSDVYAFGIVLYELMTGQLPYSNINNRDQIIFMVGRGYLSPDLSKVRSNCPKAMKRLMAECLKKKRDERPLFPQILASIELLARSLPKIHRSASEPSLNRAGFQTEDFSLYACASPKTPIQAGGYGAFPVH

[6] = molecular target: B-Raf V600E (Homo sapiens, UniProt P15056, V600E); experiment: Kinase activity assay, B-Raf V600E; type: biochemical; settings: read-out: activity toward kinase B-Raf V600E, IC50
B-Raf V600E, sequence (P15056 whole entry V600E): as the sequence (P15056 whole entry) above, with V600E counted along it

[7] = molecular target: Kdr (Homo sapiens, UniProt P35968); experiment: Kinase activity assay, Kdr
Kdr, sequence (P35968 20-1356): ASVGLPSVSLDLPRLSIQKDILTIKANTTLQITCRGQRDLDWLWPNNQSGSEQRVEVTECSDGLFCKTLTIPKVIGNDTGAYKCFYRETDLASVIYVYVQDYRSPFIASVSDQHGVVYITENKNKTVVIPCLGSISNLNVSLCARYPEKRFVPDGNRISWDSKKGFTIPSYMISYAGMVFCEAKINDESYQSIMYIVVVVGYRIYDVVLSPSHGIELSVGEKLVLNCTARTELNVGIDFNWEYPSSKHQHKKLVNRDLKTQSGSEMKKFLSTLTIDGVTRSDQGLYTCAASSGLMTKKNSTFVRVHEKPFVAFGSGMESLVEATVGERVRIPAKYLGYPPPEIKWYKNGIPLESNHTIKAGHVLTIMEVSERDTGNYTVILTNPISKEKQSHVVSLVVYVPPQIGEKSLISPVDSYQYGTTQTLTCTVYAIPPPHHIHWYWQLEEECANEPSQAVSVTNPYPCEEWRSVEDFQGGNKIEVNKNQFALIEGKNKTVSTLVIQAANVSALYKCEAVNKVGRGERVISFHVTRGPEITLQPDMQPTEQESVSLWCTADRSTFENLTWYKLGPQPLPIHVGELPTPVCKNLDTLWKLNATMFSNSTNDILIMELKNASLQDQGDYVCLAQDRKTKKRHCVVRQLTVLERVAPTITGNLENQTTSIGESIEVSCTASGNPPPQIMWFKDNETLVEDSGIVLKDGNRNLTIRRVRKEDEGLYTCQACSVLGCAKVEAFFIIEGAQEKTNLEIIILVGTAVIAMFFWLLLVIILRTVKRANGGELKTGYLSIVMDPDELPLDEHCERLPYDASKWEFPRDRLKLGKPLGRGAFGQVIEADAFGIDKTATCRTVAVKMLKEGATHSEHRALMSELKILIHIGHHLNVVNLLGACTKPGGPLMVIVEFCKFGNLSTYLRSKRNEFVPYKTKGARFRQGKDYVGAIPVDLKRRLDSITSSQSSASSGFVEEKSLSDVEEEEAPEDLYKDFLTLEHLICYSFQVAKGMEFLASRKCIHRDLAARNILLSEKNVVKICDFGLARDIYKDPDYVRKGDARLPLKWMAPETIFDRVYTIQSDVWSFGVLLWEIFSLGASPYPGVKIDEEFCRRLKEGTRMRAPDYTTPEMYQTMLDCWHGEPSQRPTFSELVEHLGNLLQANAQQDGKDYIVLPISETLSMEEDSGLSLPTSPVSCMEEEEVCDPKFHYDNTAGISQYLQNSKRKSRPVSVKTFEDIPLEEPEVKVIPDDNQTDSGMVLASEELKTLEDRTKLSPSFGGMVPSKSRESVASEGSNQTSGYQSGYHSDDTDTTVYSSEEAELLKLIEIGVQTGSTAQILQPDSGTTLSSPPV

[8] = molecular target: C-Raf (Homo sapiens, UniProt P04049); experiment: Kinase activity assay, C-Raf
C-Raf, sequence (P04049 whole entry): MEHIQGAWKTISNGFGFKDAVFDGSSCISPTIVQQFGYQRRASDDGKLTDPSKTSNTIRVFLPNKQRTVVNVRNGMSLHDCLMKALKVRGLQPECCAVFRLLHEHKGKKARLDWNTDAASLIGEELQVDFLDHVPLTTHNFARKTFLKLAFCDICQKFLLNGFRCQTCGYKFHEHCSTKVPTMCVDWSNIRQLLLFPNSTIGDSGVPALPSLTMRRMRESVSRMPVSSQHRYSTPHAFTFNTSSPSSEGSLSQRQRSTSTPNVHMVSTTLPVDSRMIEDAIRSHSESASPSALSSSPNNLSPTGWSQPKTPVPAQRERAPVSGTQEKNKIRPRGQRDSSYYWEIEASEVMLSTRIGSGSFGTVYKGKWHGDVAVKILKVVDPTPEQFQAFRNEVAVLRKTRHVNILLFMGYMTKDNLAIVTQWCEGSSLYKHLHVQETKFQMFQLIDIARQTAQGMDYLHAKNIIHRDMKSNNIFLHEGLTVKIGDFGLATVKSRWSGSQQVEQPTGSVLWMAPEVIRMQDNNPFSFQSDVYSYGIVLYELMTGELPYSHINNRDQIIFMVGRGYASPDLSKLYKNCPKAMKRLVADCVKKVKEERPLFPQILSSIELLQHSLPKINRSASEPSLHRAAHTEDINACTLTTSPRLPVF

[9] = molecular target: Fms (Homo sapiens, UniProt P07333); experiment: Kinase activity assay, Fms

Measured: IC50

Kit, sequence (P10721 26-976): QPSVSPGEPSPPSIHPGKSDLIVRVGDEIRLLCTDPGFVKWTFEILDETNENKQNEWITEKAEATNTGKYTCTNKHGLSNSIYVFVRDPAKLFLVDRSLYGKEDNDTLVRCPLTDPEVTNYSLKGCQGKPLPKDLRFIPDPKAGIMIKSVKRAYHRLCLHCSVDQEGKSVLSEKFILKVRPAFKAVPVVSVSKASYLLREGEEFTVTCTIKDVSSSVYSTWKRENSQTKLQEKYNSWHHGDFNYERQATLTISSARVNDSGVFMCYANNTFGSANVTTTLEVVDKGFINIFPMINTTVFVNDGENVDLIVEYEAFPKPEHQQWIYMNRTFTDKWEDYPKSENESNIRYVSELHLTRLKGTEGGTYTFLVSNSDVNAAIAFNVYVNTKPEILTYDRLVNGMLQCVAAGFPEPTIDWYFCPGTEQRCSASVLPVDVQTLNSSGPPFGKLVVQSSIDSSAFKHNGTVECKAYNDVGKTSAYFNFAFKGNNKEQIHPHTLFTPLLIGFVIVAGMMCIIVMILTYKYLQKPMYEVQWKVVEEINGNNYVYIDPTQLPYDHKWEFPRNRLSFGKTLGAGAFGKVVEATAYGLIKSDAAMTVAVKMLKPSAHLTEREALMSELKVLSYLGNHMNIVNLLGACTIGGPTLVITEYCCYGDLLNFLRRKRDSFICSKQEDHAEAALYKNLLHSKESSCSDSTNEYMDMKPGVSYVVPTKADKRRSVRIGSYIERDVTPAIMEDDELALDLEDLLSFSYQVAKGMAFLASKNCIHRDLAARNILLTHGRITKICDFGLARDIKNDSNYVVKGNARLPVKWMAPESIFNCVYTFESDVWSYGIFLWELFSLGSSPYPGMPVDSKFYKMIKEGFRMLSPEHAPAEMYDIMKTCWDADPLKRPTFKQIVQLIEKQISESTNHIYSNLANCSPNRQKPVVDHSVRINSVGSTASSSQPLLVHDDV
Src, sequence (P12931 whole entry): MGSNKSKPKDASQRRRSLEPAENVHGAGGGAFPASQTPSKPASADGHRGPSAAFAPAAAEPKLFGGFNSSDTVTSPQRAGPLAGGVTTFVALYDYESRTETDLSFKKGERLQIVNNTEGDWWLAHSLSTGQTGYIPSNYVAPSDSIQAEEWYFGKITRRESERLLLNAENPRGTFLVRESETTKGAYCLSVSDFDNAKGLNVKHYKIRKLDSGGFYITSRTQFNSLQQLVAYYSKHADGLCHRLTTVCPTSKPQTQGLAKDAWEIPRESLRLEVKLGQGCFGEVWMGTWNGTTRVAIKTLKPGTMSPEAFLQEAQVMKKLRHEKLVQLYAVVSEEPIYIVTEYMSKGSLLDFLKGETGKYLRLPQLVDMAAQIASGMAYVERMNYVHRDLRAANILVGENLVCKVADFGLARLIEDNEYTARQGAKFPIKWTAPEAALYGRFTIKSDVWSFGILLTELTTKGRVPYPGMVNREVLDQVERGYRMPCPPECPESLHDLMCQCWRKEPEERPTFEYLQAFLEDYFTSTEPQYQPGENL

O=C(c1c(F)ccc(NS(=O)(=O)c2cccnc2)c1F)c1c[nH]c2ncc(Cl)cc12 [P-2071, Pyridine-3-sulfonic acid [3-(5-chloro-1H-pyrrolo[2,3-b]pyridine-3-carbonyl)-2,4-difluoro-phenyl]-amide]
≤ 10 µM: [1] | [2] | [3] | [4]

N#Cc1cnc2[nH]cc(C(=O)c3c(F)ccc(NS(=O)(=O)c4ccc(F)cc4F)c3F)c2c1 [P-2030, N-[3-(5-Cyano-1H-pyrrolo[2,3-b]pyridine-3-carbonyl)-2,4-difluoro-phenyl]-2,4-difluoro-benzenesulfonamide]
not listed: [9]
≤ 10 µM: all other assays above

COc1ccnc2[nH]cc(C(=O)c3c(F)ccc(NS(=O)(=O)c4ccccc4F)c3F)c12 [P-2021, N-[2,4-Difluoro-3-(4-methoxy-1H-pyrrolo[2,3-b]pyridine-3-carbonyl)-phenyl]-2-fluoro-benzenesulfonamide]
not listed: [9]
≤ 10 µM: all other assays above

Cc1cnc2[nH]cc(C(=O)c3cc(NS(=O)(=O)C4CCCCC4)ccc3F)c2c1 [P-2443, Cyclohexanesulfonic acid [4-fluoro-3-(5-methyl-1H-pyrrolo[2,3-b]pyridine-3-carbonyl)-phenyl]-amide]
≤ 10 µM: [9] | [7] | [1] | [3] | [4]

O=C(c1c(F)ccc(NS(=O)(=O)C2CCCCC2)c1F)c1c[nH]c2ncc(Cl)cc12 [P-2357, Cyclohexanesulfonic acid [3-(5-chloro-1H-pyrrolo[2,3-b]pyridine-3-carbonyl)-2,4-difluoro-phenyl]-amide]
not listed: [9]
≤ 10 µM: all other assays above

CS(=O)(=O)c1cccc(-c2cnc3[nH]cc(C(=O)c4cc(NS(=O)(=O)C5CCCC5)ccc4F)c3c2)c1 [P-2445, Cyclopentanesulfonic acid {4-fluoro-3-[5-(3-methanesulfonyl-phenyl)-1H-pyrrolo[2,3-b]pyridine-3-carbonyl]-phenyl}-amide]
≤ 10 µM: all assays above

COc1ccnc2[nH]cc(C(=O)c3c(F)ccc(NS(=O)(=O)c4c(F)cccc4F)c3F)c12 [P-2031, N-[2,4-Difluoro-3-(4-methoxy-1H-pyrrolo[2,3-b]pyridine-3-carbonyl)-phenyl]-2,6-difluoro-benzenesulfonamide]
not listed: [9]
≤ 10 µM: all other assays above

COc1cnc2[nH]cc(C(=O)c3c(F)ccc(NS(=O)(=O)C4CCCC4)c3F)c2c1 [P-2356, Cyclopentanesulfonic acid [2,4-difluoro-3-(5-methoxy-1H-pyrrolo[2,3-b]pyridine-3-carbonyl)-phenyl]-amide]
not listed: [9]
≤ 10 µM: all other assays above

CCCC(C)S(=O)(=O)Nc1ccc(F)c(C(=O)c2c[nH]c3ncc(OC)cc23)c1F (stereo not drawn) [P-2309, Pentane-2-sulfonic acid [2,4-difluoro-3-(5-methoxy-1H-pyrrolo[2,3-b]pyridine-3-carbonyl)-phenyl]-amide]
not listed: [5] | [8] | [9]
≤ 10 µM: all other assays above

COc1cnc2[nH]cc(C(=O)c3c(F)ccc(NS(=O)(=O)C4CCCCC4)c3F)c2c1 [P-2355, Cyclohexanesulfonic acid [2,4-difluoro-3-(5-methoxy-1H-pyrrolo[2,3-b]pyridine-3-carbonyl)-phenyl]-amide]
not listed: [9]
≤ 10 µM: all other assays above

O=C(c1c(F)ccc(NS(=O)(=O)c2c(F)cccc2F)c1F)c1c[nH]c2ncc(Cl)cc12 [P-2003, N-[3-(5-Chloro-1H-pyrrolo[2,3-b]pyridine-3-carbonyl)-2,4-difluoro-phenyl]-2,6-difluoro-benzenesulfonamide]
≤ 10 µM: all assays above

N#Cc1cnc2[nH]cc(C(=O)c3c(F)ccc(NS(=O)(=O)c4c(F)cccc4F)c3F)c2c1 [P-2029, N-[3-(5-Cyano-1H-pyrrolo[2,3-b]pyridine-3-carbonyl)-2,4-difluoro-phenyl]-2,6-difluoro-benzenesulfonamide]
not listed: [9]
≤ 10 µM: all other assays above

Cc1cnc2[nH]cc(C(=O)c3c(F)ccc(NS(=O)(=O)c4ccccn4)c3F)c2c1 [P-2070, Pyridine-2-sulfonic acid [2,4-difluoro-3-(5-methyl-1H-pyrrolo[2,3-b]pyridine-3-carbonyl)-phenyl]-amide]
not listed: [1] | [9]
≤ 10 µM: all other assays above

Cc1cnc2[nH]cc(C(=O)c3c(F)ccc(NS(=O)(=O)c4c(F)cccc4F)c3F)c2c1 [P-2024, N-[2,4-Difluoro-3-(5-methyl-1H-pyrrolo[2,3-b]pyridine-3-carbonyl)-phenyl]-2,6-difluoro-benzenesulfonamide]
not listed: [9]
≤ 10 µM: all other assays above

COc1ccnc2[nH]cc(C(=O)c3c(F)ccc(NS(=O)(=O)c4cccc(F)c4)c3F)c12 [P-2023, N-[2,4-Difluoro-3-(4-methoxy-1H-pyrrolo[2,3-b]pyridine-3-carbonyl)-phenyl]-3-fluoro-benzenesulfonamide]
not listed: [9]
≤ 10 µM: all other assays above

CCC(C)S(=O)(=O)Nc1ccc(F)c(C(=O)c2c[nH]c3ncc(Cl)cc23)c1F (stereo not drawn) [P-2310, Butane-2-sulfonic acid [3-(5-chloro-1H-pyrrolo[2,3-b]pyridine-3-carbonyl)-2,4-difluoro-phenyl]-amide]
not listed: [9]
≤ 10 µM: all other assays above
